One may read the Kd as the free concentration of one partner at which half of the binding sites on the other are occupied at equilibrium, for simple one-to-one binding.

The source made the active and inactive calls. The rule behind the calls is not given here.

Experimental findings from PubChem BioAssay AID1648 (Sanford-Burnham Center for Chemical Genomics, 2009) are described below.

The target in this assay is Serine/threonine-protein kinase mTOR (Homo sapiens) (UniProt P42345). The experiment in a line: mTOR FRB domain ligand binding – biophysical, NMR (AID 1648). The note with it: NMR binding to FRB domain, chemical shift.
Chain of Serine/threonine-protein kinase mTOR (Homo sapiens) (P42345 2015-2114): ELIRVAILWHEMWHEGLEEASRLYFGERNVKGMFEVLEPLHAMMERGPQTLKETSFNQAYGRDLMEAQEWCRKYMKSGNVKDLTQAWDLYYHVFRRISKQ
In the case of `CC(C)CC(=O)Nc1c[nH]c(=O)[nH]c1=O`, the Kd was > 4 mM (inactive).
In the case of `Nc1ccc2c(c1)OCO2`, the Kd was > 4 mM (inactive).
To `O=C(Nc1nnc(-c2ccco2)o1)C1=COCCO1` belongs > 4 mM (inactive); to `COc1cc(-c2coc3cc(O[C@@H]4O[C@H](CO)[C@@H](O)[C@H](O)[C@H]4O)c(OC)c(O)c3c2=O)cc(O)c1OC`, > 4 mM (inactive); to `CCOC(=O)c1c(C)nc2ccccn12`, > 4 mM (inactive).
For `O=C(CSC1=NCCS1)N1CCc2ccccc21`, the Kd is > 4 mM (inactive).
In the case of `CCOc1ccc2nc(NS(C)(=O)=O)sc2c1` it was > 4 mM (inactive); in that of `O=C1CC2OCC=C3CN4CC[C@]56c7ccccc7N1C5[C@H]2[C@H]3CC46` (some centres undefined), > 4 mM (inactive); in that of `COc1ccc(C2CC(=O)c3ccc(OC)cc3O2)cc1` (centres undefined), > 4 mM (inactive).
In the case of `NS(=O)(=O)c1ccc(NC(=O)/C=C\C(=O)O)cc1` it was > 4 mM (inactive); in that of `O=C(C1CCNCC1)N1CCCCCC1`, > 4 mM (inactive); in that of `CC1=C2[C@H]3OC(=O)[C@@H](C)[C@@H]3CC[C@@]2(C)C=CC1=O`, > 4 mM (inactive).
With `CC(C)CCCC(C)C1CCC2C3C[C@@H](O)[C@@]4(O)C[C@@H](O)CC[C@]4(C)C3CC[C@]12C` (some centres undefined), the Kd is > 4 mM (inactive).
To `CC(NC(=O)c1cccnc1)c1ccc2c(c1)OCO2` (centres undefined) belongs > 4 mM (inactive); to `Cc1nnc(SCc2ccccc2)[nH]c1=O`, > 4 mM (inactive).
`NC(=S)CN1CCCC1=O`: the Kd was > 4 mM (inactive).
With `CC(=O)c1cccc(NC(=O)Nc2c(C)nn(C)c2C)c1`, the Kd was > 4 mM (inactive).
In the case of `C=CCCCCCCCCCCCC(O)CC(O)COC(C)=O` (centres undefined) (tested in a mixture with another compound) it was > 4 mM (inactive).
To `CC(=O)c1c(O)cc(C)n(Cc2ccccc2)c1=O` belongs > 4 mM (inactive); to `CCOC(=O)c1ccc(Oc2ccc(C)nn2)cc1`, > 4 mM (inactive); to `O=C(O)C1CC(C2CCCCN2)CN2CCCCC12` (centres undefined), > 4 mM (inactive).
Take `Cc1[nH]c(=O)[nH]c(=O)c1N1CCOCC1`: the Kd was > 4 mM (inactive).
To `COc1ccc2c3c1O[C@H]1C[C@@H](O)C=C[C@@]31CCN(C)C2` belongs > 4 mM (inactive); to `CC(=O)Oc1c(-c2ccccc2)oc2c(CC=C(C)C)c3c(c(OC(C)=O)c2c1=O)C=CC(C)(C)O3`, > 4 mM (inactive); to `O=c1[nH]cnc2c1nnn2Cc1ccccc1`, > 4 mM (inactive).
In the case of `CN1CCCn2c1nc1c2c(=O)[nH]c(=O)n1C` it was > 4 mM (inactive); in that of `CC(=O)Nc1ccc(C(=O)NC2=NCCS2)cc1`, > 4 mM (inactive).
In the case of `CC1(C)C=Cc2c(cc3occ(-c4ccc5c(c4)OCO5)c(=O)c3c2O)O1` it was > 4 mM (inactive); in that of `NC(=O)c1ccccc1NC(=O)C1CCCO1` (centres undefined), > 4 mM (inactive); in that of `CC(C)(O)P(C)(=O)c1ccccc1` (centres undefined), > 4 mM (inactive).
Turning to `COC(=O)c1cc2cc(N)ccc2s1`, the Kd was > 4 mM (inactive).
In the case of `COc1ccc2ccc(=O)oc2c1CC=C(C)C` it was > 4 mM (inactive); in that of `CC1=CC(=O)C2C(C)(C)CCC[C@]2(C)[C@@]1(O)CCc1ccoc1` (some centres undefined), > 4 mM (inactive); in that of `Cc1ccccc1NS(=O)(=O)c1ccc(F)cc1`, > 4 mM (inactive).
In the case of `COC(=O)c1ccc(/C=C2/NC(=S)NC2=O)cc1` it was > 4 mM (inactive); in that of `CC1(C)CC2C1CCC1(C)OC1CCC2(C)O` (centres undefined), > 4 mM (inactive).
In the case of `COc1ccc(C(=O)O)cc1OC` it was > 4 mM (inactive); in that of `O=Cc1c(N2CCOCC2)nc2ccccn2c1=O`, > 4 mM (inactive); in that of `COc1cc(/C=C/C(=O)O)ccc1O`, > 4 mM (inactive).
